Common to all, as to assay type: cell-based
The subject of assay [1] is Wnt activity (Sp5-Luc reporter, TCF/LEF binding sites) in SW480 colon carcinoma cells. In words: Wnt activity screening assay: Sp5-Luc reporter gene assay in SW480 cells. The settings on record: Homo sapiens; Sp5-Luc reporter, SW480 cells, overnight incubation. A digest of the protocol: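 SW480 cells stably carrying a luciferase reporter under a human Sp5 promoter with eight TCF/LEF sites, plated at 4,000 cells/well in 1% FBS medium. Luminescence read with BrightGlo, normalized to DMSO-treated cells; EC50 from four-parameter variable-slope nonlinear regression.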
For orientation: Reporter assays use an easily measured gene product as a stand-in for the process of interest.

A further assay concerns SW480 colon cancer cells. In words: Cell viability assay (CellTiter-Blue) in SW480 colon cancer cells. The settings on record: Homo sapiens; for EC50: 96 h, SW480 cell viability, four days, CellTiter-Blue. A digest of the protocol: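 Fluorescence from resazurin reduced to resorufin by metabolically active cells was the read-out, taken after ~3 h with CellTiter-Blue.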
In assay [2] the test system is LL29 cells (primary human fibroblasts derived from IPF patients), α-smooth muscle actin. In words: Inhibition of the fibrotic process: αSMA staining in TGF-β1 treated primary human fibroblasts from IPF patients (LL29 cells). Particulars: Fibroblast, 96 h, LL29 cells, TGF-β1 20 ng/mL, 4 days, % αSMA positive cells. Summed up:
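IPF-patient-derived LL29 lung fibroblasts in F12 with 1% FBS, stimulated with TGF-β1 alongside compound; TGF-β1 plus DMSO wells served as controls. After 4 days, nuclei stained with 1 μM SYTOX green for 30 min at room temperature, alongside αSMA staining.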

In assay [3] the test system is primary human mesenchymal stem cells (hMSCs). In words: Induction of chondrogenesis in primary human mesenchymal stem cells (chondrogenic nodules, Rhodamine B / Nile Red). Particulars: 6 days; for Emax: relative to TGF-β3 (10 ng/mL) positive control, read-out: Max. Activity as % TGF-β3 activity; for EC50: concentration required to induce 50% levels of chondrogenesis vs TGF-β3, read-out: Conc (nM) of 50% TGF-β3 activity. Summed up: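 Primary hMSCs at passage 3–6 were fixed with 4% formaldehyde and stained with 2 μg/mL Rhodamine B plus 20 μM Nile Red to image chondrogenic nodules. Nodule counts normalized to the mean of 3 DMSO wells (fold change), averaged over 3 replicate wells per concentration. TGF-β3 served as positive control; EC50, maximum activity and the dose giving maximum are reported.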

The next assay relates to IL-6 in THP-1 cells. Nature of the assay: IL-6 inhibition in LPS-stimulated THP-1 human monocyte cells (HTRF). The settings on record: for EC50: IL-6 inhibition, LPS-stimulated THP-1 cells, HTRF, 10-point dose-response starting from 10 μM. Summed up:
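THP-1 cells were serum-reduced (1% FBS, 24 h), plated at 5000 cells/well with compound for 2 h at 37 °C, then stimulated 22 h with 500 ng/mL LPS. Secreted IL-6 was quantified by HTRF (665/620 nm ratio). Signals were normalised to DMSO, and EC50 was fitted by four-parameter nonlinear regression.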

As for `Cn1cc(-c2cnc3[nH]nc(-c4cc5c(-c6cccnc6)nccc5[nH]4)c3c2)cn1` [Compound 556, 5-(1-Methyl-1H-pyrazol-4-yl)-3-(4-(pyridin-3-yl)-1H-pyrrolo[3,2-c]pyridin-2-yl)-1H-pyrazolo[3,4-b]pyridine], the EC50 in assay [1] turned out to be 0.318 µM; in the assay with SW480 colon cancer cells, 0.975 µM; in assay [2], 0.098 µM; in the assay on IL-6 in THP-1 cells, 0.355 µM. The Emax in assay [3] turned out to be 33%.
On to `CN(C)Cc1cncc(-c2cnc3[nH]nc(-c4cc5c(-c6cccc(F)c6)nccc5[nH]4)c3c2)c1` [Compound 13, 1-(5-(3-(4-(3-Fluorophenyl)-1H-pyrrolo[3,2-c]pyridin-2-yl)-1H-pyrazolo[3,4-b]pyridin-5-yl)pyridin-3-yl)-N,N-dimethylmethanamine], for which the EC50 was found to be 3.26 µM in assay [1]; 0.773 µM with SW480 colon cancer cells; 2.44 µM in assay [2]; 10 nM in assay [3]; 6.42 µM in the assay with IL-6 in THP-1 cells. Also, in assay [3], the Emax stood at 110%.
For the compound `CS(=O)(=O)NCc1cc(F)cc(-c2nccc3[nH]c(-c4n[nH]c5ncc(-c6cncc(OCc7ccccc7)c6)cc45)cc23)c1` [Compound 774, N-(3-(2-(5-(5-(Benzyloxy)pyridin-3-yl)-1H-pyrazolo[3,4-b]pyridin-3-yl)-1H-pyrrolo[3,2-c]pyridin-4-yl)-5-fluorobenzyl)methanesulfonamide], the EC50 is 6.86 µM in assay [1], more than 10 µM in the assay with SW480 colon cancer cells, 2.16 µM in assay [2] and more than 10 µM in the assay with IL-6 in THP-1 cells. Further, the inhibition at 10 µM in the assay on SW480 colon cancer cells (SW480, read-out: percent inhibition at 10 μM) turned out to be 30.2%; with IL-6 in THP-1 cells (THP-1, read-out: percentage in parentheses beside EC50 >10), 48.3%. Also, the Emax in assay [3] was determined as 21%.
Take `c1cc2[nH]c(-c3n[nH]c4ncc(-c5cncc(CN6CCCCC6)c5)cc34)cc2c(N2CCCCC2)n1` [Compound 183, 3-(4-(Piperidin-1-yl)-1H-pyrrolo[3,2-c]pyridin-2-yl)-5-(5-(piperidin-1-ylmethyl)pyridin-3-yl)-1H-pyrazolo[3,4-b]pyridine]: the EC50 in assay [1] is 3.85 µM; in the assay with SW480 colon cancer cells it was 0.827 µM; in assay [2], 1.22 µM; in assay [3], 900 nM; in the assay with IL-6 in THP-1 cells, 4.8 µM. The Emax in assay [3] worked out at 62%.

(Values after patent publication US10226448B2, “3-(1H-pyrrolo[3,2-C]pyridin-2-yl)-1H-pyrazolo[3,4-B]pyridines and therapeutic uses thereof” (Samumed, LLC, priority 2015, dated 2019).)
